The values that follow come from patent publication US10377753B2, “Substituted 4-azaindoles and their use as GluN2B receptor modulators” (Janssen Pharmaceutica NV, priority 2015, dated 2019).

The target of the assay is cloned human NR1/NR2B ion channels (Homo sapiens (Human), UniProt Q05586+Q13224). Nature of the assay: HNR2BC: effects of test articles on cloned human NR1/NR2B ion channels expressed in mammalian cells (FLIPR calcium flux). The note with it: cloned human NR1/NR2B ion channels, Table 5. Format: cell-based. An outline of the steps: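 In a stable Tet-On-induced cell line expressing human GluN1/GluN2B, Calcium 5-loaded cells were preincubated 5 min with compound, then stimulated 5 min with glutamate at ~EC80 plus 10 μM glycine, in pH 7.4 HEPES buffer. FLIPR calcium fluorescence was normalized to control wells.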
Chain of cloned human NR1/NR2B ion channels (Q13224 27-1484, other chains not shown): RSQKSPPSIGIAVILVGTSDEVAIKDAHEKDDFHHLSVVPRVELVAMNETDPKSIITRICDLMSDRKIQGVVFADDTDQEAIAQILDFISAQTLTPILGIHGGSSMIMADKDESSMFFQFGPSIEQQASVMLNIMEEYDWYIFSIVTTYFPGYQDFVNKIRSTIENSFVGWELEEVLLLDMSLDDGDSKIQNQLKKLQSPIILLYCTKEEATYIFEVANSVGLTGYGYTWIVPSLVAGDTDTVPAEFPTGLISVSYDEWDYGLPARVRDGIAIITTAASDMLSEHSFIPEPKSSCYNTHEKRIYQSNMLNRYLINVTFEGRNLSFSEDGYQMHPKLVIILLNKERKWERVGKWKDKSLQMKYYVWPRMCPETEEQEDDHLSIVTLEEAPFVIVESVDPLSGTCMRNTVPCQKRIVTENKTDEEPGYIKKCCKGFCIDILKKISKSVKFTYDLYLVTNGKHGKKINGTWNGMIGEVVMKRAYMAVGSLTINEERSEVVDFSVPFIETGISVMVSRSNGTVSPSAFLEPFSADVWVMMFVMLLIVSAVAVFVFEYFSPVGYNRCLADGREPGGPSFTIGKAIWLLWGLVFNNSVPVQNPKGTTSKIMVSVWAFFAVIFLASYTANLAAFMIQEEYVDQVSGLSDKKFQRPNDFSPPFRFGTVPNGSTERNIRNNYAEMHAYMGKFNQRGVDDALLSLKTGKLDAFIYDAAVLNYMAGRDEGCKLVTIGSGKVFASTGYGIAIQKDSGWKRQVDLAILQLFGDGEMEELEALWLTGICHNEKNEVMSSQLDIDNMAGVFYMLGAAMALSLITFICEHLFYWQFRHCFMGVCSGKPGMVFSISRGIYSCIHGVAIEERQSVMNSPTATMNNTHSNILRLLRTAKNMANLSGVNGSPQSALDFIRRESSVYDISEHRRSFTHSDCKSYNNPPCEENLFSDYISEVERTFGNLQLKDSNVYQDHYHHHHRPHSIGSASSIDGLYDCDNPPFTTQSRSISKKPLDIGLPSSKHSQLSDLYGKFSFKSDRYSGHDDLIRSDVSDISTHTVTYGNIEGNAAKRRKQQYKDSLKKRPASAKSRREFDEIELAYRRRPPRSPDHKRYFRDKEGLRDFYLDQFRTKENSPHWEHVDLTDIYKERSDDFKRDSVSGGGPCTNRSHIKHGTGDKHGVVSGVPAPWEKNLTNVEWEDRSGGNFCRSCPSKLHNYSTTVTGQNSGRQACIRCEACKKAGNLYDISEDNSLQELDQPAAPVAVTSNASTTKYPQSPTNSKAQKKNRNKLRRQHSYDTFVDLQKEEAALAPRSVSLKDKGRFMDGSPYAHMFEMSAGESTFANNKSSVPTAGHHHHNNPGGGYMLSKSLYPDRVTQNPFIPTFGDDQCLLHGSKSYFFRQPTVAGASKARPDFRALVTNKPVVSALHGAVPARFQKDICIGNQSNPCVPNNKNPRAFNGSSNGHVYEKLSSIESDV
With `CN(C)C(=O)Cn1cc(F)c2ncc(-c3ccc(F)c(C(F)(F)F)c3)cc21` [Example 605, 2-[3-Fluoro-6-[4-fluoro-3-(trifluoromethyl)phenyl]pyrrolo[3,2-b]pyridin-1-yl]-N,N-dimethyl-acetamide], the IC50 was 0.0631 µM.

Turning to `CN(C)C(=O)Cn1cc(F)c2ncc(-c3cccc(Cl)c3F)cc21` [Example 606, 2-[6-(3-Chloro-2-fluoro-phenyl)-3-fluoro-pyrrolo[3,2-b]pyridin-1-yl]-N,N-dimethyl-acetamide], the IC50 is 0.0631 µM.

Take `Cc1cccc(-c2cnc3c(F)cn(CC(=O)N4CC(F)C4)c3c2)c1` [Example 607, 1-(3-Fluoroazetidin-1-yl)-2-[3-fluoro-6-(m-tolyl)pyrrolo[3,2-b]pyridin-1-yl]ethanone]: the IC50 is 0.0398 µM.

`O=C(Cn1cc(F)c2ncc(-c3ccc(F)c(Cl)c3)cc21)N1CC(F)C1` [Example 608, 2-[6-(3-Chloro-4-fluoro-phenyl)-3-fluoro-pyrrolo[3,2-b]pyridin-1-yl]-1-(3-fluoroazetidin-1-yl)ethanone]: the IC50 was 0.02 µM.

Consider `CN(C)C(=O)Cn1cc(C(F)(F)F)c2ncc(-c3cc(F)cc(F)c3)cc21` [Example 611, 2-[6-(3,5-Difluorophenyl)-3-(trifluoromethyl)pyrrolo[3,2-b]pyridin-1-yl]-N,N-dimethyl-acetamide], for which the IC50 is 0.01 µM.

Take `FC(F)(F)c1cccc(-c2cnc3c(Cl)cn(Cc4cccnc4)c3c2)c1` [Example 612, 3-Chloro-1-(3-pyridylmethyl)-6-[3-(trifluoromethyl)phenyl]pyrrolo[3,2-b]pyridine]: the IC50 was 0.0316 µM.

As to `FC(F)(F)c1cccc(-c2cnc3ccn(Cc4cccnn4)c3c2)c1` [Example 613, 1-(Pyridazin-3-ylmethyl)-6-[3-(trifluoromethyl)phenyl]pyrrolo[3,2-b]pyridine], the IC50 was 2.51 µM.

`Cc1cc(-c2cnc3c(Cl)cn(Cc4cccnn4)c3c2)ccc1F` [Example 614, 3-Chloro-6-(4-fluoro-3-methyl-phenyl)-1-(pyridazin-3-ylmethyl)pyrrolo[3,2-b]pyridine]: the IC50 was 0.0316 µM.

On to `FC(F)(F)c1cccc(-c2cnc3c(Cl)cn(Cc4cccnn4)c3c2)c1` [Example 615, 3-Chloro-1-(pyridazin-3-ylmethyl)-6-[3-(trifluoromethyl)phenyl]pyrrolo[3,2-b]pyridine], for which the IC50 was 0.0251 µM.

Consider `Cc1cc(-c2cnc3c(C)cn(CC(=O)N4CCCC4)c3c2)ccc1F` [Example 616, 2-[6-(4-Fluoro-3-methyl-phenyl)-3-methyl-pyrrolo[3,2-b]pyridin-1-yl]-1-pyrrolidin-1-yl-ethanone], for which the IC50 was 0.0316 µM.

Regarding `CCN(C)C(=O)Cn1cc(C)c2ncc(-c3ccc(F)c(C)c3)cc21` [Example 617, N-Ethyl-2-[6-(4-fluoro-3-methyl-phenyl)-3-methyl-pyrrolo[3,2-b]pyridin-1-yl]-N-methyl-acetamide], the IC50 was 0.0501 µM.

With `Cc1cc(-c2cnc3c(C)cn(CC(=O)N4CC(F)(F)C4)c3c2)ccc1F` [Example 618, 1-(3,3-Difluoroazetidin-1-yl)-2-[6-(4-fluoro-3-methyl-phenyl)-3-methyl-pyrrolo[3,2-b]pyridin-1-yl]ethanone], the IC50 is 0.0316 µM.

With `Cc1cn(CC(=O)N2CCCC2)c2cc(-c3ccc(F)c(F)c3)cnc12` [Example 619, 2-[6-(3,4-Difluorophenyl)-3-methyl-pyrrolo[3,2-b]pyridin-1-yl]-1-pyrrolidin-1-yl-ethanone], the IC50 is 0.0398 µM.

As to `CCN(C)C(=O)Cn1cc(C)c2ncc(-c3ccc(F)c(F)c3)cc21` [Example 620, 2-[6-(3,4-Difluorophenyl)-3-methyl-pyrrolo[3,2-b]pyridin-1-yl]-N-ethyl-N-methyl-acetamide], the 50% inhibitory concentration (IC50) is 0.0251 µM.

As for `Cc1cn(CC(=O)N2CC(F)(F)C2)c2cc(-c3ccc(F)c(F)c3)cnc12` [Example 621, 1-(3,3-Difluoroazetidin-1-yl)-2-[6-(3,4-difluorophenyl)-3-methyl-pyrrolo[3,2-b]pyridin-1-yl]ethanone], the IC50 was 0.631 µM.

Consider `Cc1c(F)ccc(-c2cnc3c(C)cn(CC(=O)N(C)C)c3c2)c1F` [Example 622, 2-[6-(2,4-Difluoro-3-methyl-phenyl)-3-methyl-pyrrolo[3,2-b]pyridin-1-yl]-N,N-dimethyl-acetamide], for which the IC50 is 0.1 µM.

With `Cc1cn(CC(=O)N2CCCC2)c2cc(-c3cc(F)cc(F)c3)cnc12` [Example 623, 2-[6-(3,5-Difluorophenyl)-3-methyl-pyrrolo[3,2-b]pyridin-1-yl]-1-pyrrolidin-1-yl-ethanone], the IC50 is 0.0158 µM.

In the case of `Cc1c(F)ccc(-c2cnc3c(C)cn(CC(=O)N4CCCC4)c3c2)c1F` [Example 624, 2-[6-(2,4-Difluoro-3-methyl-phenyl)-3-methyl-pyrrolo[3,2-b]pyridin-1-yl]-1-pyrrolidin-1-yl-ethanone], the IC50 is 0.0794 µM.

Take `CCN(C)C(=O)Cn1cc(C)c2ncc(-c3ccc(F)c(C)c3F)cc21` [Example 625, 2-[6-(2,4-Difluoro-3-methyl-phenyl)-3-methyl-pyrrolo[3,2-b]pyridin-1-yl]-N-ethyl-N-methyl-acetamide]: the IC50 is 0.1 µM.

Consider `Cc1c(F)ccc(-c2cnc3c(C)cn(CC(=O)N4CC(F)(F)C4)c3c2)c1F` [Example 626, 1-(3,3-Difluoroazetidin-1-yl)-2-[6-(2,4-difluoro-3-methyl-phenyl)-3-methyl-pyrrolo[3,2-b]pyridin-1-yl]ethanone], for which the IC50 is 0.631 µM.

For `Cc1c(F)ccc(-c2cnc3c(C)cn(CC(=O)N4CCC4)c3c2)c1F` [Example 627, 1-(Azetidin-1-yl)-2-[6-(2,4-difluoro-3-methyl-phenyl)-3-methyl-pyrrolo[3,2-b]pyridin-1-yl]ethanone], the IC50 was 0.158 µM.

For `Cc1cn(CC(=O)N(C)C)c2cc(-c3ccc(Cl)s3)cnc12` [Example 628, 2-[6-(5-Chloro-2-thienyl)-3-methyl-pyrrolo[3,2-b]pyridin-1-yl]-N,N-dimethyl-acetamide], the IC50 was 0.1 µM.

As to `Cc1c(F)ccc(-c2cnc3c(C)cn(CC(=O)N4CC(F)C4)c3c2)c1F` [Example 629, 2-[6-(2,4-Difluoro-3-methyl-phenyl)-3-methyl-pyrrolo[3,2-b]pyridin-1-yl]-1-(3-fluoroazetidin-1-yl)ethanone], the IC50 is 0.0398 µM.

Consider `CCN(C)C(=O)Cn1cc(C)c2ncc(-c3ccc(C)s3)cc21` [Example 630, N-Ethyl-N-methyl-2-[3-methyl-6-(5-methyl-2-thienyl)pyrrolo[3,2-b]pyridin-1-yl]acetamide], for which the IC50 was 0.251 µM.

Consider `Cc1ccc(-c2cnc3c(C)cn(CC(=O)N4CCCC4)c3c2)s1` [Example 631, 2-[3-Methyl-6-(5-methyl-2-thienyl)pyrrolo[3,2-b]pyridin-1-yl]-1-pyrrolidin-1-yl-ethanone], for which the half-maximal inhibitory concentration (IC50) is 0.158 µM.

As for `Cc1ccc(-c2cnc3c(C)cn(CC(=O)N4CC(F)(F)C4)c3c2)s1` [Example 632, 1-(3,3-Difluoroazetidin-1-yl)-2-[3-methyl-6-(5-methyl-2-thienyl)pyrrolo[3,2-b]pyridin-1-yl]ethanone], the IC50 was 0.2 µM.

In the case of `Cc1ccc(-c2cnc3c(C)cn(CC(=O)N4CCC4)c3c2)s1` [Example 633, 1-(Azetidin-1-yl)-2-[3-methyl-6-(5-methyl-2-thienyl)pyrrolo[3,2-b]pyridin-1-yl]ethanone], the IC50 is 0.0501 µM.

A word on the IC50: it is the point on the concentration scale where inhibition reaches its midpoint.
